# Laboratory results from PubChem BioAssay (NCI).
#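 Test compounds were applied to cells in 96-well plates for 48 hours at 5 doses. GI50 marks 50% less growth. TGI: total growth inhibition.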
# Columns and labels:
# Experiment in all cases: NCI anticancer screen, dose series, 48 h
# [1] = tested on: 786-0 renal
# [2] = tested on: A498 renal
# [3] = tested on: A549 NSCLC
# [4] = tested on: ACHN renal
# [5] = tested on: BT-549 breast
# [6] = tested on: CAKI-1 renal
# [7] = tested on: CCRF-CEM leukemia
# [8] = tested on: DU-145 prostate
# [9] = tested on: EKVX NSCLC
# [10] = tested on: HCC-2998 colon
# [11] = tested on: HCT-116 colon
# [12] = tested on: HCT-15 colon
# [13] = tested on: HL-60(TB) leukemia
# [14] = tested on: HOP-62 NSCLC
# [15] = tested on: HOP-92 NSCLC
# [16] = tested on: HS 578T breast
# [17] = tested on: HT29 colon
# [18] = tested on: IGROV1 ovarian
# [19] = tested on: K-562 leukemia
# [20] = tested on: KM12 colon
# [21] = tested on: M14 melanoma
# [22] = tested on: MALME-3M melanoma
# [23] = tested on: MCF7 breast
# [24] = tested on: MDA-MB-231 breast
# [25] = tested on: MDA-MB-435
# [26] = tested on: MOLT-4 leukemia
# [27] = tested on: NCI-H226 lung
# [28] = tested on: NCI-H23 lung
# [29] = tested on: NCI-H460 lung
# [30] = tested on: NCI-H522 lung
# [31] = tested on: NCI/ADR-RES ovarian
# [32] = tested on: OVCAR-3 ovarian
# [33] = tested on: OVCAR-4 ovarian
# [34] = tested on: OVCAR-5 ovarian
# [35] = tested on: OVCAR-8 ovarian
# [36] = tested on: PC-3 prostate
# [37] = tested on: RXF 393 renal
# [38] = tested on: SF-268 CNS
# [39] = tested on: SF-295 CNS
# [40] = tested on: SF-539 CNS
# [41] = tested on: SK-MEL-2 melanoma
# [42] = tested on: SK-MEL-28 melanoma
# [43] = tested on: SK-MEL-5 melanoma
# [44] = tested on: SK-OV-3 ovarian
# [45] = tested on: SN12C renal
# [46] = tested on: SNB-19 CNS
# [47] = tested on: SNB-75 CNS
# [48] = tested on: SR leukemia
# [49] = tested on: SW-620 colon
# [50] = tested on: T-47D breast
# [51] = tested on: TK-10 renal
# [52] = tested on: U251 CNS
# [53] = tested on: UACC-257 melanoma
# [54] = tested on: UACC-62 melanoma
# [55] = tested on: UO-31 renal
# [56] = tested on: COLO 205 colon
# [57] = tested on: LOX IMVI melanoma
# [58] = tested on: RPMI-8226 leukemia
compound,measurement,setting,value
CCN(CC)CCOc1ccc(/C=C2\CC3C4CC=C5C[C@@H](O)CC[C@]5(C)C4CC[C@]3(C)C2=O)cc1OC (stereo partly drawn),GI50,[1],1.92 µM
same,TGI,[1],3.66 µM
same,GI50,[2],2840 nM
same,TGI,[2],9.84 µM
same,GI50,[3],11.6 µM
same,TGI,[3],26.1 µM
same,GI50,[4],1.77 µM
same,TGI,[4],3.32 µM
same,GI50,[5],26 µM
same,TGI,[5],> 52.6 µM
same,GI50,[6],4.14 µM
same,TGI,[6],16.3 µM
same,TGI,[7],> 22 µM
same,GI50,[8],9.51 µM
same,TGI,[8],21.4 µM
same,GI50,[9],9.56 µM
same,TGI,[9],> 52.1 µM
same,GI50,[10],8.43 µM
same,TGI,[10],21.6 µM
same,GI50,[11],2440 nM
same,TGI,[11],8.79 µM
same,GI50,[12],2.27 µM
same,TGI,[12],6.19 µM
same,GI50,[13],10.1 µM
same,TGI,[13],22.3 µM
same,GI50,[14],3940 nM
same,TGI,[14],10.9 µM
same,GI50,[15],1450 nM
same,TGI,[15],32.2 µM
same,GI50,[16],5.62 µM
same,TGI,[16],33.7 µM
same,GI50,[17],2290 nM
same,TGI,[17],> 100 µM
same,GI50,[18],2940 nM
same,TGI,[18],7.72 µM
same,GI50,[19],3090 nM
same,TGI,[19],> 38.2 µM
same,GI50,[20],3340 nM
same,TGI,[20],13.8 µM
same,GI50,[21],2060 nM
same,TGI,[21],4.34 µM
same,GI50,[22],2010 nM
same,TGI,[22],12.3 µM
same,GI50,[23],9.6 µM
same,TGI,[23],54.5 µM
same,GI50,[24],2310 nM
same,TGI,[24],7.38 µM
same,GI50,[25],1940 nM
same,TGI,[25],3740 nM
same,GI50,[26],2040 nM
same,TGI,[26],> 23.5 µM
same,GI50,[27],2.77 µM
same,TGI,[27],8.77 µM
same,GI50,[28],7.71 µM
same,TGI,[28],> 60.6 µM
same,GI50,[29],5420 nM
same,TGI,[29],> 53 µM
same,GI50,[30],3570 nM
same,TGI,[30],14 µM
same,GI50,[31],16.2 µM
same,TGI,[31],56.1 µM
same,GI50,[32],1710 nM
same,TGI,[32],9.04 µM
same,GI50,[33],18.8 µM
same,TGI,[33],45.9 µM
same,GI50,[34],5.53 µM
same,TGI,[34],20.3 µM
same,GI50,[35],1920 nM
same,TGI,[35],3.74 µM
same,GI50,[36],3480 nM
same,TGI,[36],> 39.1 µM
same,GI50,[37],5.64 µM
same,TGI,[37],21.5 µM
same,GI50,[38],7.39 µM
same,TGI,[38],> 57.3 µM
same,GI50,[39],2600 nM
same,TGI,[39],10.3 µM
same,GI50,[40],3380 nM
same,TGI,[40],12.7 µM
same,GI50,[41],7.27 µM
same,TGI,[41],78.3 µM
same,GI50,[42],9.61 µM
same,TGI,[42],73.4 µM
same,GI50,[43],6.58 µM
same,TGI,[43],22.6 µM
same,GI50,[44],8.64 µM
same,TGI,[44],> 58.3 µM
same,GI50,[45],3.54 µM
same,TGI,[45],19.4 µM
same,GI50,[46],4.67 µM
same,TGI,[46],> 64 µM
same,GI50,[47],15.6 µM
same,TGI,[47],34.8 µM
same,GI50,[48],955 nM
same,TGI,[48],3.9 µM
same,GI50,[49],2540 nM
same,TGI,[49],> 20.5 µM
same,GI50,[50],2790 nM
same,TGI,[50],> 100 µM
same,GI50,[51],9.94 µM
same,TGI,[51],21.5 µM
same,GI50,[52],2410 nM
same,TGI,[52],6.37 µM
same,GI50,[53],2300 nM
same,TGI,[53],5.5 µM
same,GI50,[54],1710 nM
same,TGI,[54],3.3 µM
same,TGI,[55],> 100 µM
COc1cc(C2c3cc4c(cc3C(O)C(CO)C2CO)OCO4)cc(OC)c1OC (stereo not drawn),GI50,[1],6.59 µM
same,TGI,[1],> 100 µM
same,GI50,[2],321 nM
same,GI50,[3],1.64 µM
same,TGI,[3],> 100 µM
same,GI50,[4],8.09 µM
same,TGI,[4],> 100 µM
same,GI50,[5],1.92 µM
same,TGI,[5],> 54.9 µM
same,GI50,[6],3.09 µM
same,TGI,[6],> 46.2 µM
same,GI50,[7],787 nM
same,TGI,[7],> 100 µM
same,GI50,[56],725 nM
same,TGI,[56],5.76 µM
same,GI50,[8],0.965 µM
same,TGI,[8],15.4 µM
same,GI50,[9],1.27 µM
same,TGI,[9],> 71 µM
same,GI50,[10],1.78 µM
same,TGI,[10],> 100 µM
same,GI50,[11],492 nM
same,TGI,[11],> 100 µM
same,GI50,[12],4.41 µM
same,TGI,[12],> 100 µM
same,GI50,[13],0.322 µM
same,GI50,[14],1470 nM
same,TGI,[14],> 100 µM
same,GI50,[15],> 100000 nM
same,TGI,[15],> 100 µM
same,GI50,[16],0.623 µM
same,GI50,[17],422 nM
same,GI50,[18],551 nM
same,TGI,[18],> 25.9 µM
same,GI50,[19],432 nM
same,TGI,[19],> 100 µM
same,GI50,[20],494 nM
same,TGI,[20],> 47 µM
same,GI50,[57],656 nM
same,TGI,[57],> 100 µM
same,GI50,[21],706 nM
same,TGI,[21],> 100 µM
same,GI50,[23],0.355 µM
same,TGI,[23],> 100 µM
same,GI50,[24],3690 nM
same,TGI,[24],> 100 µM
same,GI50,[25],197 nM
same,TGI,[25],549 nM
same,GI50,[26],1590 nM
same,TGI,[26],> 100 µM
same,GI50,[27],7.47 µM
same,TGI,[27],> 100 µM
same,GI50,[28],4.21 µM
same,TGI,[28],> 100 µM
same,GI50,[29],463 nM
same,TGI,[29],> 26.4 µM
same,GI50,[30],380 nM
same,GI50,[31],21.5 µM
same,TGI,[31],> 100 µM
same,GI50,[32],372 nM
same,TGI,[32],1.94 µM
same,GI50,[33],7.6 µM
same,TGI,[33],> 100 µM
same,GI50,[34],5.69 µM
same,TGI,[34],> 100 µM
same,GI50,[35],2760 nM
same,TGI,[35],> 100 µM
same,GI50,[36],596 nM
same,TGI,[36],> 100 µM
same,GI50,[58],1590 nM
same,TGI,[58],> 100 µM
same,GI50,[37],1.12 µM
same,TGI,[37],> 100 µM
same,GI50,[38],3.32 µM
same,TGI,[38],> 100 µM
same,GI50,[39],219 nM
same,TGI,[39],0.468 µM
same,GI50,[40],335 nM
same,TGI,[41],> 100 µM
same,GI50,[42],1.6 µM
same,TGI,[42],> 100 µM
same,GI50,[43],0.636 µM
same,TGI,[43],> 72 µM
same,GI50,[44],1.57 µM
same,TGI,[44],> 100 µM
same,GI50,[45],4.94 µM
same,TGI,[45],> 100 µM
same,GI50,[46],2.6 µM
same,TGI,[46],> 100 µM
same,GI50,[47],0.594 µM
same,TGI,[47],> 100 µM
same,GI50,[48],342 nM
same,TGI,[48],> 48.5 µM
same,GI50,[49],370 nM
same,TGI,[49],> 100 µM
same,TGI,[50],> 100 µM
same,GI50,[51],> 23.2 µM
same,TGI,[51],> 100 µM
same,GI50,[52],587 nM
same,TGI,[52],> 100 µM
same,GI50,[53],670 nM
same,TGI,[53],> 100 µM
same,GI50,[54],534 nM
same,TGI,[54],> 100 µM
same,TGI,[55],> 100 µM
